Experimental data: patent publication US20260027071A1, “COMPOSITION FOR PROMOTING COLLAGEN PRODUCTION COMPRISING AMIDATED AMINO ACID” (KYUNGPOOK NATIONAL UNIVERSITY INDUSTRY-ACADEMIC COOPERATION …, priority 2022, published 2026)
“Also recorded” adds a separate entry of the source. Peptide text beside a SMILES is read from it.

What was measured:
[1] = system: Human dermal fibroblasts (HDF); test: Collagen protein in conditioned media (Sircol Collagen Assay) of human dermal fibroblasts; format: cell-based; conditions: for collagen production (collagen levels secreted into the media): HDF treated at 1 mM, result in words; for change in collagen production induced by individual treatment / change in collagen production induced by combined treatment with glycinamide: FIG. 7b; for change in collagen production induced by individual treatment: concentration not given; for change in collagen production induced by combined treatment with glycinamide: ascorbic acid analog combined with glycinamide
Protocol: The collagen protein levels in the conditioned media were evaluated using the Sircol™ Collagen Assay (Biocolor, Antrim, UK) according to the manufacturer's instructions. […] After discarding the media, the cells were washed with 500 μL of phosphate-buffered saline (PBS), then incubated in 1 mL of serum-free media for another 24 hours. A 1.0 mL media sample (either conditioned media or fresh media as a negative control) was transferred to a microcentrifuge tube, mixed with 100 μL of collagen isolation and concentration reagent, and incubated overnight at 4° C. The samples were centrifuged at 13,000×g for 10 minutes at 4° C., and the supernatant was carefully removed using a pipette without disturbing the pellet. Each tube was then added with 500 μL of Sircol dye reagent, inverted five times, and shaken at room temperature for 30 minutes. After centrifugation, the supernatant was discarded, and the pellet was washed with 500 μL of cold acid-salt washing reagent, followed by another centrifugation step. The pellet was then dissolved in 250 μL of alkali reagent, and a 200 μL portion was transferred to a 96-well plate. The optical density of the solution was read at 555 nm using a Spectrostar Nano microplate reader (BMG LABTECH GmbH, Ortenberg, Germany).

[2] = system: Human dermal fibroblasts (HDF); test: Cell viability / proliferation (MTT assay) in human dermal fibroblasts; conditions: for cell viability: HDF treated at 1 mM, result in words; for cell proliferation effect of TGF-β1: HDF, analog combined with TGF-β1 (FIG. 7c)
Protocol: Human dermal fibroblasts (HDF) extracted from adult skin were obtained from Cascade Biologics (Portland, OR, USA), and human articular chondrocytes (HAC), human follicle dermal papilla cells (HFCPC), human aortic endothelial cells (HAoEC), and human osteoblasts (HOB) were obtained from PromoCell (Heidelberg, Germany). The cells were cultured in a closed incubator at 37° C. in humidified air comprising 5% CO2. The growth medium for HDF consisted of Iscove's Modified Dulbecco's Medium (IMDM) (Gibco BRL, Grand Island, NY, USA) supplemented with 10% fetal bovine serum (Hyclone, South Logan, UT) and 1% antibiotics (100 U·mL^−1 penicillin, 0.1 mg·mL^−1 streptomycin).
The cell viability was evaluated using the MTT assay. Briefly, HDF (1×10^4 cells per well), HAC (5×10^3 cells per well), HFDPC (1×10^4 cells per well), HAoEC (5×10^3 cells per well), and HOB (2×10^3 cells per well) were cultured in growth media in a 96-well culture plate for 24 hours, followed by treatment with each drug for 48 hours. After discarding the media, the cells were incubated at 37° C. for 2 hours in fresh growth media (100 μL) containing 1 mg·mL^−1 MTT (Amresco, Solon, OH, USA). The media was removed by aspiration, and the formazan dye accumulated inside the cells was dissolved in 100 μL of dimethyl sulfoxide. The absorbance of the solution was measured at 570 nm using a Spetrostar Nano microplate reader (BMG LABTECH GmbH, Ortenberg, Germany).

human dermal fibroblasts = test: Wound healing (wound closure) assay, Oris cell migration kit; format: cell-based; conditions: HDF
Protocol: Wound closure analysis was performed using the Oris™ Universal Cell Migration Assembly kit (Platinus Technologies, WI, USA) according to the manufacturer's instructions. The Oris™ stoppers were inserted into each well of the Oris™-compatible 96-well plate, and the plate was inverted to check for complete stopper attachment. A suspension of human dermal fibroblasts in IMDM was added to each well (1×10^4 cells in 100 μL per well) and incubated for 12 hours to allow cell attachment. Then, the stoppers were removed using the stopper tool, and the medium was aspirated using a pipette. The wells were gently washed with 100 μL PBS to remove unattached cells, and the attached cells were treated with drugs in 100 μL culture medium for the specified time, respectively. Images of the wounds were obtained using a phase-contrast microscope (Eclipse TS 100, Nikon Instruments Inc., Melville, NY, USA). The wound areas in the images were quantified using the NIH Image J program. Wound closure (%) was calculated using the following equation: Wound closure (%)=[(A0−At)/A0]×100, where A0 is the area of the original wound and At is the wound area measured at the specified time.

Molecule | collagen production (collagen levels secreted into the media) [1] | also measured
CC[C@H](C)[C@H](N)C(N)=O.Cl [isoleucinamide, L-Isoleucinamide HCl] | enhanced the collagen levels | –
C[C@@H](O)[C@H](N)C(N)=O.Cl [threoninamide, L-Threoninamide HCl] | enhanced the collagen levels | –
Cl.NC(=O)[C@@H](N)CC(=O)O [aspartic acid α-amide, L-Aspartic acid α-amide HCl] | no significant effect | cell viability [2]: reducing effect
CC(C)C[C@H](N)C(N)=O.Cl [leucinamide, L-Leucinamide HCl] | enhanced the collagen levels | –
NCC(=O)O [glycine, Glycine, reference compound] | most effectively increased collagen; also recorded: enhanced collagen production | collagen production ([1]; HDF, 3 and 5 mM): significantly reduced
CCCCCCCCC(CCCCCC)C(=O)OC[C@H](OC(=O)C(CCCCCC)CCCCCCCC)[C@H]1OC(=O)C(OC(=O)C(CCCCCC)CCCCCCCC)=C1OC(=O)C(CCCCCC)CCCCCCCC (some centres unmarked) [ATI, ascorbyl tetraisopalmitate, reference compound] | – | change in collagen production induced by individual treatment ([1]; HDF): 25.5%; change in collagen production induced by combined treatment with glycinamide ([1]; HDF): 124.6%; cell proliferation effect of TGF-β1 [2]: significantly reduced; wound closure (human dermal fibroblasts; early stage (24 hours)): slightly promoted wound closure; wound closure (human dermal fibroblasts; later stages (36 and 48 hours)): inhibited
CC[C@H](C)[C@H](N)C(=O)O [isoleucine, L-Isoleucine, reference compound] | increased collagen | –
NCC(=O)NCC(=O)O [glycylglycine] (H-Gly-Gly-OH) | promoted collagen production | collagen production ([1]; HDF, 0.25 mM): increased collagen production; collagen production ([1]; HDF, 1-2 mM): greatest enhancement of collagen production; collagen production ([1]; HDF, 3 and 5 mM): slightly reduced
O=C1O[C@H]([C@@H](O)CO)C(O)=C1O[C@H]1O[C@H](CO)[C@@H](O)[C@H](O)[C@H]1O [AG, ascorbyl 2-O-glucoside, reference compound] | – | change in collagen production induced by individual treatment ([1]; HDF): 27.2%; change in collagen production induced by combined treatment with glycinamide ([1]; HDF): 123.6%; cell proliferation effect of TGF-β1 [2]: significantly reduced; wound closure (human dermal fibroblasts; early stage (24 hours)): slightly promoted wound closure; wound closure (human dermal fibroblasts; later stages (36 and 48 hours)): inhibited
Cl.NC(=O)[C@@H](N)Cc1c[nH]c2ccccc12 [tryptophanamid, L-Tryptophanamide HCl] | no significant effect | –
NCC(=O)NCC(=O)O [glycyl glycine, reference compound] (H-Gly-Gly-OH) | did not affect collagen production | –
CCOC1=C(O)C(=O)O[C@@H]1[C@@H](O)CO [EAA, 3-O-ethyl ascorbic acid, reference compound] | – | change in collagen production induced by individual treatment ([1]; HDF): 19.5%; change in collagen production induced by combined treatment with glycinamide ([1]; HDF): 115.5%; cell proliferation effect of TGF-β1 [2]: significantly reduced; wound closure (human dermal fibroblasts; early stage (24 hours)): slightly promoted wound closure; wound closure (human dermal fibroblasts; later stages (36 and 48 hours)): inhibited
Cl.NC(=O)CC[C@H](N)C(N)=O [glutaminamide, L-Glutaminamide HCl] | enhanced the collagen levels | –
CC(C)[C@H](N)C(N)=O.Cl [valinamide, L-Valinamide HCl] | enhanced the collagen levels | –
COC(=O)CN.Cl [glycine methyl ester, glycine methyl ester HCl, reference compound] | somewhat reducing effect | –
Cl.NC(=O)[C@@H](N)Cc1ccc(O)cc1 [tyrosinamide, L-Tyrosinamide HCl] | enhanced the collagen levels | –
CC(C)C[C@H](N)C(=O)O [leucine, L-Leucine, reference compound] | increased collagen | –

Molecule | collagen production (collagen levels secreted into the media) [1] | also measured
NC(=O)CC[C@H](N)C(=O)O [glutamine, L-Glutamine, reference compound] | increased collagen | –
Cl.NC(=O)[C@@H](N)CO [serinamide, L-Serinamide HCl] | no significant effect | –
Cl.NC(=O)[C@@H]1CCCN1 [prolinamide, L-Prolinamide HCl] | enhanced the collagen levels | –
Cl.NC(=O)C[C@H](N)C(N)=O [asparaginamide, L-Asparaginamide HCl] | no significant effect | –
CC(=O)NCC(=O)O [N-acetyl glycine, reference compound] | did not affect collagen production | –
O=C(O)[C@@H]1CCCN1 [proline, L-Proline, reference compound] | increased collagen | –
Cl.NC(=O)[C@@H](N)CS [cysteinamide, L-Cysteinamide HCl] | enhanced the collagen levels | –
C[C@H](N)C(N)=O.Cl [alaninamide, L-Alaninamide HCl] | enhanced the collagen levels | –
CCOC(=O)CN.Cl [glycine ethyl ester, glycine ethyl ester HCl, reference compound] | did not affect collagen production | –
NC(=O)[C@@H](N)CCC(=O)O [glutamic acid α-amide, L-Glutamic acid α-amide] | enhanced the collagen levels | –
Cl.NC(=O)[C@@H](N)Cc1ccccc1 [phenylalaninamide, L-Phenylalaninamide HCl] | enhanced the collagen levels | –
madecassoside [reference compound] | – | collagen production ([1]; HDF, 10 μM): no significant effect; concentrations at which collagen production increased ([1]; HDF, non-cytotoxic concentrations (FIG. 10b)): 100 µM
CSCC[C@H](N)C(N)=O.Cl [methioninamide, L-Methioninamide HCl] | enhanced the collagen levels | –
O=C1O[C@H]([C@@H](O)CO)C([O-])=C1OP(=O)([O-])[O-].O=C1O[C@H]([C@@H](O)CO)C([O-])=C1OP(=O)([O-])[O-].[Mg+2].[Mg+2].[Mg+2] [MAP, Magnesium ascorbyl phosphate, reference compound] | – | change in collagen production induced by individual treatment ([1]; HDF): 25.3%; change in collagen production induced by combined treatment with glycinamide ([1]; HDF): 118.4%; further enhancement of wound closure by combined treatment with glycinamide (human dermal fibroblasts; analog combined with glycinamide): further enhanced; wound closure (human dermal fibroblasts; treated alone, up to 48 hours (FIG. 8b)): promoted wound closure to a similar extent as ascorbic acid
Cl.NC(=O)[C@@H](N)Cc1c[nH]cn1 [histidinamide, L-Histidinamide HCl] | no significant effect | –
Cl.Cl.N=C(N)NCCC[C@H](N)C(N)=O [argininamide, L-Argininamide diHCl] | enhanced the collagen levels | –
Cl.Cl.NCCCC[C@H](N)C(N)=O [lysinamide, L-Lysinamide diHCl] | no significant effect | cell viability [2]: reducing effect
